What was measured:
Hh pathway activity [1] = assay: Priming and withdrawal of compound followed by Shh stimulation, Gli-luciferase reporter (hypersensitivity); assay type: cell-based; details: for hypersensitivity to Hh pathway stimulation after priming with and removal of compound, Gli-luciferase: priming 24 hours, washout, then Shh (or SAG) stimulation
Procedure: (§1) Hh activity assays were performed using ShhLightll cells, Smo/Lightll cells, SmoM2/Lightll cells, and suFU−/− mouse embryonic fibroblasts. In the suFU−/− cells, Hh activity was measured after co-transfection with Gli driven firefly luciferase and TK-renilla luciferase reporters^41. Wnt activity was measured in 293 cells co-transfected with Top-flash and TK-renilla luciferase reporters^42. Cells were cultured and treated in 96 well assay plates (Corning) and incubated with Duo-Glo luciferase substrates (Promega) to measure firefly and renilla luciferase activity sequentially using a Top Count NX Microplate Scintillation and Luminescence Counter (Perkin Elmer). The renilla luciferase signal was used to normalize the firefly reporter activity.
Following the removal of drug containing medium, and extensive washing, cells were stimulated with either Hh ligand, or the direct-binding Smo agonist SAG^17,18.
(§2) ShhLightII cells and SmoM2/LightII cells were cultured and treated in 96 well assay plates (Corning) and incubated with Duo-Glo luciferase substrates (Promega) to sequentially measure firefly and renilla luciferase activity. Smo, or GFP, expression plasmids were co-transfected into 3T3 cells together with a Gli-responsive firefly reporter and a TK-renilla luciferase reporter contruct to monitor effects of Smo overexpression. Co-transfection of the two reporter constructs was conducted in assays measuring Hh pathway activity in suFU−/− cells. Wnt activity was measured following co-transfection of a Top-flash and renilla luciferase reporter. In both Hh and Wnt activity assays, renilla luciferase reporter activity, or mass of protein, was used to normalize expression values. Luciferase signal was read by TopCount NX Microplate Scintillation and Luminescence Counter (Perkin Elmer). Quantitative PCR probes for Ptch1, Gli1, and β-actin were purchased from Applied Biosystems. Reactions and measurements were performed using on an Applied Biosystems 7900HT at Harvard FAS Center of System Biology. β-actin was used to normalize Ptch1 and Gil1 values.

Smo = assay: Bodipy-cyclopamine competition assay in Cos 7 cells expressing Smo; assay type: binding; details: for competition of Bodipy-Cyc binding to Smo: cells over-expressing Smo, 5 nM Bodipy-cyclopamine
Procedure: Cos 7 cells were transfected with a plasmid co-expressing Smo and a nuclear localized form of tagRFPT (pCIT-Smo). An empty parental construct (pCIT), and a construct that co-expresses SmoM2, were used as controls to assess specificity and background noise. Three days after transfection, cells were incubated with 5 nM Bodipy-cyclopamine, with or without other compounds for 1 hour at 37 °C. Cells were washed, fixed and stained with Hoechst. Images were collected by an Opera High Content Screen System. Bodipy fluorescence was quantified specifically for transfected cells (determined by red tagRFPT+ nucleus) using a program developed by the authors with Acapella 2.0 software. All of the images were scanned with identical microscopic settings and analyzed with the same input parameters.
Cos 7 cells were transfected with a plasmid that co-expresses Smo and a nuclear localized tagRFPT marker (pCIT-Smo). The empty parental construct (pCIT) and a construct that co-express SmoM2 were used as controls to assess specificity and background signal. Three days after transfection, cells were incubated with 5 nM Bodipy-cyclopamine, with or without additional compounds, for 1 hour at 37° C. Cells were then fixed and stained with Hoechst. Images were collected with the Opera High Content Screen System. Fluorescence values were assessed in transfected cells (red nuclei) with a program developed by the authors using Acapella 2.0 software. All of images were scanned with identical microscopic setting and analyzed with the same input parameters.

Hh pathway activity [2] = assay: Gli-luciferase reporter assay, Shh-induced Hh pathway activity (ShhLightII cells); assay type: cell-based
Source text: NIH/3T3 cells were maintained in DMEM containing 10% (v/v) calf serum, penicillin, streptomycin, and L-glutamine. HEK293, L, cos 7, and suFU−/− mouse embryonic fibroblast cells were maintained in DMEM containing 10% (v/v) fetal bovine serum, penicillin, streptomycin, and L-glutamine. Smo::EGFP, SmoM2::GFP, and Ivs::tagRFPT were cloned into pBabe to generate retroviral particles for infection. Smo::EGFP/Ivs::tagRFPT and SmoM2::GFP/Ivs::tagRFPT stable cell lines were generated through viral infection of NIH/3T3^12. A ShhLightII Gli reporter cell line was obtained from the American Type Culture Collection (ATCC) and used in luciferase reporter assays to measure Hh pathway activity. The cell line contains a stably integrated Gli-responsive Firefly luciferase reporter and a constitutive Renilla luciferase expression construct^33. Subclones expressing Smo or SmoM2 in ShhLightII cells were used for chemical epistasis analyses.
as §1, §2

[3] = system: Hh pathway activation induced by loss of suFU; assay: Gli-luciferase assay in suFU−/− mouse embryonic fibroblasts; assay type: cell-based; details: suFU−/− cells
Procedure: as §1
ShhLightII cells and SmoM2/LightII cells were cultured and treated in 96 well assay plates (Corning) and incubated with Duo-Glo luciferase substrates (Promega) to sequentially measure firefly and renilla luciferase activity. […] Wnt activity was measured following co-transfection of a Top-flash and renilla luciferase reporter. […] Luciferase signal was read by TopCount NX Microplate Scintillation and Luminescence Counter (Perkin Elmer). Quantitative PCR probes for Ptch1, Gli1, and β-actin were purchased from Applied Biosystems. […]

[4] = system: cerebellar granule neuron precursors (CGNPs) from P7 Ptch1+/− mice; assay: CGNP proliferation assay (pH3 positive cells); assay type: cell-based
Procedure: CGNP primary cells were isolated from P7 Ptch1+/− mice as previously reported^43 and immediately seeded in poly-D-lysine coated imaging plates (Greiner Bio-one). Compounds were applied 2 hours post seeding, for either 36 (FIG. 5a-b) or 72 hours (FIG. 5d-e). After completion of each experimental regimen, cells were fixed with 4% paraformaldehyde (Electron Microscopy Sciences), and stained with anti-pH3 antibody (Upstate; 1:100) followed by a secondary antibody (Invitrogen) and Hoechst (Invitrogen). Images were then collected using a confocal microscope. Cell proliferation, as marked by a pH3 signal, was quantified with an in-house program developed by the authors using Acapella 2.0 software. Identical microscopic settings were used in each analysis and identical input parameters were implemented for each experiment.
CGNP primary cells were isolated from P7 Ptch1+/− mice as previously reported^44. Cells were seeded in poly-D-lysine coated imaging plates (Greiner Bio-one), treatments were applied 2 hours thereafter and last for 36 hours. Cells then were fixed with 4% paraformaldehyde (Electron Microscopy Sciences), and stained with anti-pH3 antibody (Upstate; 1:100) followed by a secondary antibody (Invitrogen) and Hoechst (Invitrogen). Images were collected and cell proliferation quantified with a program developed by the authors utilizing Acapella 2.0 software. All of the images in each experiment were collected with identical microscopic settings and analyzed with identical input parameters.

Wnt signaling activity = assay: Wnt Top-flash reporter assay; assay type: cell-based; details: with or without Wnt3a
Procedure: as §1, §2

[5] = system: Smo::EGFP/Ivs::tagRFPT cells; assay: Cytotoxicity in vitro in the high content assay; assay type: cell-based; details: doses up to 200 μM
Procedure: Hoechst staining was used to determine the total number of nuclei per well.
Cells were cultured and treated in 384-well imaging plate precoated with poly-D-Lysine (Greiner Bio-one), fixed with 4% paraformaldehyde (Electron Microscopy Sciences), and stained with Hoechst (Invitrogen). Images were collected using Opera High Content Screening System (Perkin Elmer).

SMILES | hypersensitivity to Hh pathway stimulation after priming with and removal of compound, Gli-luciferase (Hh pathway activity [1]) | IC50 (Smo; Cos7/Smo expression, stimulus none, read-out: IC50, competition of BODIFY-cyclopamine-Smo binding) [nM] | competition of Bodipy-Cyc binding to Smo (Smo) | IC50 (Hh pathway activity [2]; Mus musculus, Shh Light II, 3T3/Shh-LightII cells, stimulus Shh, read-out: IC50, inhibition of Shh-induced expression of Gli-luciferase reporter) [nM] | effect on Hh pathway activation induced by loss of suFU [3] | Shh driven hyperactivation after removal of compound, CGNP proliferation assay ([4]; CGNPs, after removal of compound) | IC50 ([4]; Mus musculus, Neuron, pH 3, Ptch ± CGNP, stimulus Shh, read-out: IC50, Shh induced cell proliferation marked by pH 3) [nM] | effect on Shh-induced pH3 marked proliferation of CGNPs ([4]; Ptch1+/− CGNPs, Shh) | effect on Wnt pathway reporter activity (Wnt signaling activity) | EC50 (Hh pathway activity [1]; cells treated 24 hours, compound withdrawal prior to Shh addition, read-out: EC50 of induced response to priming) [nM] | effect of co-stimulation on Shh-induced transcriptional response (Hh pathway activity [2]; 10 μM FA together with Shh) | cytotoxic effects in vitro [5] | effect on GDC0449 inhibition of Shh-stimulated CGNP proliferation ([4]; FA 10 μM co-administered with GDC0449) | Shh-driven CGNP proliferation ([4]; FA 10 μM with Shh) | number of proliferative pH3 positive CGNPs ([4]; FA 120 μM)
CCN(CC)c1ccc(/C=N/NC(=O)c2ccc(O)cc2)cc1 [DY131] | no Shh driven hyperactivation | 100 | effective competitor | 2000 | does not alter | no Shh driven hyperactivation | < 625 | dramatically decreased | absence of an inhibitory activity | – | – | – | – | – | –
CC1(C)O[C@@H]2C[C@H]3[C@@H]4C[C@H](F)C5=CC(=O)C=C[C@]5(C)[C@@]4(F)[C@@H](O)C[C@]3(C)[C@]2(C(=O)CO)O1 [FA, fluocinolone acetonide] | higher induction of pathway activity | – | dose-dependent competition | – | – | – | – | – | no change was detected | ~4000 | dose-dependent enhancement | no obvious cytotoxic effects | impaired | markedly enhanced | elevated

Source: patent publication US20130274233A1, “MODULATORS OF HEDGEHOG SIGNALING PATHWAY” (priority 2012, published 2013)
